Counter-ions that a name gives are not always drawn. Like-named read-outs stand apart in the source and are kept apart here.
Experiments:
[1] = test system: human gastric cancer H-23 (moderately differentiated-type adenocarcinoma); experiment: Anti-tumor effect using nude mice-transplanted human tumor (Example 2); type: in vivo, BALB/cAJcl-nu nude mouse; details: 60 mg/kg i.v. q4d×4, final day d35
[2] = test system: human gastric cancer H-23 (moderately differentiated-type adenocarcinoma); experiment: Anti-tumor effect using nude mice-transplanted human tumor (Example 3); details: 60 mg/kg i.v. d7, d11, d14
[3] = Influence of the drug on the host: change in weight and symptoms (Example 3); type: in vivo, BALB/cAJcl-nu nude mouse; details: 60 mg/kg i.v. d7, d11, d14
Experimental: The experiment was ended after 4 weeks from the starting day of administration. The tumor cell diameter was measured twice a week, and the weight was measured at the time of administration, so as to monitor the state of tumor cell proliferation and effect of drug administration, as well as any other physical changes. The mice were kept in a small vinyl isolator throughout the experiment, except for when they were moved to a clean bench through a sleeve to perform tumor cell transplantation, administration or weight measurement.
The influence of the drug on the host was evaluated by considering the change in weight and the expression of symptoms.

MCF-7 tumor cells = experiment: Cytotoxicity test, viable cell count with Cell Counting Kit-8 (WST-8); type: cell-based; details: read-out: 50% inhibiting activity
Experimental: Ellipticine which had been size-reduced by laser beam irradiation (concentration: 2 μg/ml) was diluted with the below-mentioned culturing solution, and test samples having concentrations of 1 μg/ml, 0.5 μg/ml, 0.25 μg/ml and 0.125 μg/ml were prepared. MCF-7 (MEM-culture medium) and L-1210 (RPMI-1640 culture medium) tumor cells were used as target cells. The cytotoxicity was evaluated by counting the number of viable cells following 24 hours of culturing, using Cell Counting Kit-8. More specifically, WST-8 (U.S. Pat. No. 2,757,348) as an indicate for dehydrogenase activities was used, and the color at 450 nm was evaluated. Viability(%)=(Asamples−Ablank)/(Ano-samples−Ablank) 100%
(§1) The cytotoxicity of the SN-38 nano particles was evaluated by counting the number of viable cells following 24 hours of culturing in the same manner as in the cytotoxicity test of ellipticine as described in item (3-4) of Example 1. The 50% inhibiting activity for MCF-7 cells was 100 nM.
as §1, with “10-hydroxy-camptothecin” for “SN-38”, “72” for “24”

In the case of `CCc1c2c(nc3ccc(OC(=O)N4CCC(N5CCCCC5)CC4)cc13)-c1cc3c(c(=O)n1C2)COC(=O)[C@]3(O)CC` [CPT-11, irinotecan hydrochloride], the drug effect evaluation [1] is reported as “non-effective (IR of below 58%)”, the “evaluation of max. IR” value ([2]; d18) is reported as “effective (IR≧58%)” and the “max. IR” value ([2]; d18) is reported as 69.0%. The drug effect evaluation ([2]; d21) was “non-effective (IR of below 58%)”, the drug effect evaluation ([2]; final day d35) was “non-effective (IR of below 58%)” and the body state [3] was “not good”. For the same compound, the “maximum weight loss (max. wt. loss)” value [3] was 0.4%.
Compound `CCc1c2c(nc3ccc(O)cc13)-c1cc3c(c(=O)n1C2)COC(=O)[C@]3(O)CC` [DMSO solution of SN-38, 7-ethyl-10-hydroxycamptothecin] has an IC50 (MCF-7 tumor cells; MCF-7, 24 hours of culturing) of 500 nM.
Work on `CC[C@@]1(O)C(=O)OCc2c1cc1n(c2=O)Cc2cc3cc(O)ccc3nc2-1` [DMSO solution of 10-hydroxy-camptothecin, 10-hydroxy-camptothecin] yielded an IC50 (MCF-7 tumor cells; MCF-7, 72 hours of culturing) of 100 nM.

From patent US8399024B2, “Water-insoluble medicine” (Ebara Corporation, priority 2006, dated 2013)
